Measurements: patent publication US20230346727A1, “COMPOUNDS FOR THE TREATMENT OF HEMOPHILIA” (UNIVERSITE GRENOBLE ALPES, priority 2020, published 2023)

Key:
[1] = system: plasma from the hemophiliac patient (hemophiliac patient A); assay: Second ex vivo thrombin generation test (CAT analyzer, PPP Reagent LOW); assay type: biochemical, human; details: for Amount of thrombin at the maximum of the peak, normalized to the thrombin peak obtained with adapalene: 50 μM final in plasma (positive control: factor VIII 1 IU/mL), HEPES buffer, negative control 0.13 ± 0.02; for peak of generated thrombin compared to negative and positive control, in words: 50 μM final in plasma
Experimental: A second thrombin generation test is carried out, for the compounds H27, H31, H32, H35, H38, H39 and the compound H24.
The thrombin generation test was carried out at 37° C. using a CAT analyzer (Diagnostica Stago) with the PPP Reagent LOW reagent (Diagnostica Stago) in accordance with the manufacturer's instructions and according to the method established by Pr. Hemker in 2003. PPP Reagent LOW is a mixture of tissue factor (TF) 1 pM with phospholipid vesicles (PL, 4 μM). The test is triggered by the addition of a mixture of calcium+fluorescent substrate (ZGGR-AMC) (FluCa mixture).
From a technical point of view, 80 μL of surcharged plasma sample is added to 20 μL of «initiator complex» (PPP Reagent LOW) and incubated for 10 min at 37° C. Then, the reaction is triggered by adding 20 μL of FluCa (mixture of CaCl2 and ZGGR-AMC substrate) and the fluorescence signal is measured over time. Each test is performed in triplicate.
For each tested molecule, 247 μL of plasma from the hemophiliac patient were surcharged with 13 μL of a solution containing different amounts of compound (molecule to be tested, factor VIII or dilution buffer) to obtain the desired final concentration (systematic dilution of the molecule to be tested in the plasma at 1/20). For example, to obtain the final concentration of 50 μM in plasma, 13 μL of a 1 mM solution was added to 247 μL of plasma. In parallel with the tests on the different chemical compounds, the plasma of a hemophiliac patient is surcharged with the same buffer for diluting the compound, an 8% solution of dimethyl sulfoxide (DMSO), as a negative control (0.4% of final DMSO) in order to obtain the basal level of thrombin generation of the used plasma. The positive control is the same plasma surcharged with plasma factor VIII (Factane, LFB, France) at a concentration of 1 IU/mL (or 100% factor VIII) in order to obtain the expected «normal» level of thrombin generation used plasma.
For this example, solutions of adapalene and 1 mM compounds were prepared with the buffer (18 mM HEPES, 135 mM NaCl, pH 7.35) instead of water as in Example 1. This modification has made it possible to increase the amount of thrombin generated by the plasma of the hemophiliac patient A in the presence of 50 μM of adapalene.
Compounds were tested at a final concentration of 50 μM in plasma, and signal was measured over time. The obtained results, expressed as the amount of thrombin measured at the maximum of the peak obtained and normalized to the thrombin peak obtained with adapalene, are shown in Table 1 below: […]

[2] = system: plasma from a patient suffering from severe hemophilia A; assay: Ex vivo thrombin generation test (STA-Genesia, STG-Bleedscreen reagent); assay type: biochemical, human
Experimental: The thrombin generation test consists of measuring the kinetics of appearance of this key coagulation factor in the plasma over time. After activation of coagulation by calcium, the amount of thrombin changes over time. It is measured using a synthetic thrombin substrate coupled to a fluorescent molecule (ZGGR-AMC). The main parameters determined are the latency time before observing an increase in thrombin generation, the thrombin peak corresponding to the maximum amount of thrombin generated and the ETP (endogenous thrombin potential) corresponding to the total amount of thrombin generated in plasma during the test. In the case of a patient with hemophilia A, the generation of thrombin is low or even almost zero for some patients. Adding the missing coagulation factor (factor VIII) to its physiological level (1 Ul/mL or 100%) restores coagulation in patients and recovers a «normal» thrombin generation. Thus, the thrombin generation test makes it possible to globally evaluate the coagulation rate of a given plasma and in the present case, it makes it possible to evaluate the capacity of a molecule to restore or not restore coagulation in a hemophiliac patient.
For this example, several ex vivo thrombin generation tests were carried out on plasma from a patient suffering from severe hemophilia A, therefore devoid of factor FVIII, in order to evaluate the effect on coagulation of a compound of general formula (I), more particularly adapalene, of formula (V) above, on the kinetics and the generated amount of thrombin.
Hemophiliac patient plasma was obtained from Cryopep company (Montpellier, France).
Adapalene is commercially available, in particular from Prestwick company. It was dissolved in an 8% dimethylsulfoxide (DMSO) solution then diluted to a concentration of 1 mM and then tested at the following concentrations: 50 μM, 5 μM, 0.5 μM (final concentrations in plasma).
The thrombin generation test was performed at 37° C. using a fully automated STA-Genesia analyzer (Diagnostica Stago) with STG®-Bleedscreen reagent (Diagnostica Stago) according to the manufacturer's instructions and according to the method established by Pr. Hemker in 2003. The STG®-Bleedscreen reagent is a mixture of tissue factor (TF) at low concentration with phospholipid vesicles (PL). The test is triggered by the addition of a mixture of calcium+fluorescent substrate (ZGGR-AMC) (STG®-FluoStart mixture).
From a technical point of view, 4 volumes of surcharged plasma sample are added to 1 volume of «initiator complex» (STG®-Bleedscreen) and incubated for 10 min at 37° C. Then, the reaction is triggered by adding 1 volume of STG®-FluoStart (mixture of CaCl2 and ZGGR-AMC substrate) and the fluorescence signal is measured over time. Each test is performed in duplicate
For each tested molecule, 475 μL of plasma from the hemophiliac patient were surcharged with 25 μL of a solution containing different amounts of compound (molecule to be tested, factor VIII or dilution buffer) to obtain the desired final concentration (systematic dilution of the molecule to be tested in the plasma at 1/20). For example, to obtain the final concentration of 50 μM in plasma, 25 μL of a 1 mM solution was added to 475 μL of plasma. The preparation of 500 μL of surcharged plasma allows to perform the 2 thrombin generation tests (duplicate), the 2 calibration tests (duplicate) and takes into account the dead volume of the automaton.
In parallel with the tests on the different chemical compounds, the plasma of a hemophiliac patient is surcharged with the same buffer for diluting the compound, an 8% solution of dimethylsulfoxide (DMSO), as a negative control (0.4% of final DMSO) in order to obtain the basal level of thrombin generation of the used plasma. The positive control is the same plasma surcharged with plasma factor VIII (Factane, LFB, France) at a concentration of 1 IU/mL (or 100% factor VIII) in order to obtain the expected «normal» level of used thrombin generation plasma. […]

[3] = target: T1, FXa inhibition by TFPI-K1K2 (truncated human TFPI) (Homo sapiens, UniProt P10646, F53G); assay: FXa activity assay: release of FXa inhibition by TFPI-K1K2 (colorimetric, PNAPEP-1025); assay type: biochemical; details: 50 μM, TFPI-K1K2 30 nM, FXa 0.5 nM
T1 sequence (P10646 29-182 F53G): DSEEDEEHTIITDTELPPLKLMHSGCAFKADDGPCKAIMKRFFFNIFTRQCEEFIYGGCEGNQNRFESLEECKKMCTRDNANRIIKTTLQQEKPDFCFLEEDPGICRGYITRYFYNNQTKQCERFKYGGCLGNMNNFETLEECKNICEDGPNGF
Experimental: The ability of adapalene to reverse FXa inhibition by TFPI was assessed by using a low TFPI concentration FXa activity assay. For this test, a truncated human TFPI (TFPI-K1K2) was used, which is common to both TFPI isoforms α and β, having the amino acid sequence SEQ ID No 1:
Adapalene was tested for its ability to release FXa inhibition by TFPI-K1K2 using a colorimetric assay in a 96-well plate format. All steps were performed at room temperature. FXa inhibition by increasing TFPI-K1K2 concentrations was first analyzed to determine the best detection conditions. […]
Briefly, 14.5 μL of 350 μM adapalene, prediluted in the buffer described above, was added to 62.5 μL 50 nM TFPI-K1K2 and mixed together by aspiration/dispensing. After 10 min of incubation at room temperature, 6.25 μL of 8 nM FXa was added, the mixture was mixed again, and the activity of uninhibited FXa was quantified by the addition of 18 μL of PNAPEP-1025 (Cryopep), an FXa substrate, diluted to 2 mM in H2O. […]
The plates were centrifuged to remove any bubbles and the optical density (OD) at 405 nm, corresponding to the hydrolysis of the PNAPEP-1025 substrate, was measured for 1 h at room temperature. The absorbance value at t0, corresponding to an absorbance of 0.05, was subtracted and the […] restoration value was reported as a percentage of the positive control.

[4] = adapalene 0.5 μM final in severe hemophilia A plasma
[5] = adapalene 5 μM final in severe hemophilia A plasma
[6] = adapalene 50 μM final in severe hemophilia A plasma

Row | Structure (SMILES) | Amount of thrombin at the maximum of the peak, normalized to the thrombin peak obtained with adapalene [1] | peak of generated thrombin compared to negative and positive control, in words [1] | other results
1 | COc1ccc(-c2ccc3cc(C(=O)O)cnc3c2)cc1C12CC3CC(CC(C3)C1)C2 [Compound H32, 7-(3-(adamantan-1-yl)-4-methoxyphenyl)quinoline-3-carboxylic acid] | 0.55 |  | 
2 | COc1ccc(-c2ccc(C(=O)NCC(=O)O)cc2)cc1C12CC3CC(CC(C3)C1)C2 [Compound H24, 2-(3′-(adamantan-1-yl)-4′-methoxy-[1,1′-biphenyl]-4-ylcarboxamido)acetic acid] | 0.23 |  | 
3 | COc1ccc(-c2ccc3cc(C(=O)O)cc(O)c3c2)cc1C12CC3CC(CC(C3)C1)C2 [Compound H38, 6-(3-(adamantan-1-yl)-4-methoxyphenyl)-4-hydroxy-2-naphthoic acid] | 0.96 | much higher | 
4 | COc1ccc(-c2ccc3cc(CS(=O)(=O)O)ccc3c2)cc1C12CC3CC(CC(C3)C1)C2 [Compound H39, (6-(3-(adamantan-1-yl)-4-methoxyphenyl)naphthalen-2-yl)methanesulfonic acid] | 1.22 | much higher | 
5 | C#CCOc1ccc(-c2ccc3cc(C(=O)O)ccc3c2)cc1C12CC3CC(CC(C3)C1)C2 [Compound H35, 6-(3-(adamantan-1-yl)-4-(prop-2-yn-1-yloxy)phenyl)-2-naphthoic acid] | 0.53 |  | 
6 | COc1ccc(-c2ccc3nc(C(=O)O)ccc3c2)cc1C12CC3CC(CC(C3)C1)C2 [Compound H31, 6-(3-(adamantan-1-yl)-4-m2thoxyph2nyl)quinoline-2-carboxylic acid] | 0.62 |  | 
7 | COc1ccc(-c2ccc3cc(C(=O)O)ccc3c2)cc1C12C[C@H]3C[C@@H](C1)C[C@@H](C2)C3 [adapalene, 6-[3-(1-adamantyl)-4-methoxyphenyl]naphthalene-2-carboxylic acid] | 1 | much higher | generation of thrombin (peak and ETP) compared to negative and positive control, in words ([2]; 50 μM in severe hemophilia A plasma, FIG. 3 and FIG. 4): increase in the generation of thrombin compared to the negative control; ETP (endogenous thrombin potential) [2, 4]: 455 nM·min; thrombin peak [2, 4]: 29.7 nM; ETP (endogenous thrombin potential) [2, 5]: 504 nM·min; thrombin peak [2, 5]: 39 nM; ETP (endogenous thrombin potential) [2, 6]: 588 nM·min; thrombin peak [2, 6]: 55 nM; coagulation restoration percentage (percentage of the positive control) [3]: approximately 14%; optical density (OD) at 405 nm, hydrolysis of PNAPEP-1025 by uninhibited FXa ([3]; negative control OD 0.048, positive control OD 0.406): 0.105
8 | COc1ccc(N2CCc3cc(C(=O)O)ccc3C2)cc1C12CC3CC(CC(C3)C1)C2 [Compound H27, 2-(3-(adamantan-1-yl)-4-methoxyphenyl)-1,2,3,4-tetrahydroisoquinoline-6 carboxylic acid] | 0.51 |  | 
